Measured values published in patent US20220281930A1, “COMPOSITIONS AND METHODS FOR THE TREATMENT OF PATHOLOGICAL PAIN AND ITCH” (DUKE UNIVERSITY, priority 2019, published 2022).

Tests used:
GSK3β = molecular target: T1, GSK3β (Rattus norvegicus, UniProt P18266); assay: DARTS assay, GSK3β; assay type: binding; conditions: 20 μM KP; independent of detergent treatment
T1 construct: endogenous in cells; host or cells: primary rat cortical neurons
Experimental: Cultured primary rat cortical neurons were treated with either vehicle DMSO (0.1%) or 20 μM KP for 30 h. Cells were lysed in ice-cold lysis buffer (Tris.Cl pH8 50 mM, NaCl 150 mM, NP40 0.5%, N-dodecyl-b-D-maltoside 0.5%, Phosphatase Inhibitor (Pierce #88667) and Protease Inhibitor (Roche #11836153001)). Protein concentrations were determined by Bio-Rad DC Protein Assay kit using bovine albumin as standard. All steps were performed on ice. Samples were warmed to room temperature and digested with pronase (final concentration 1:500) for 30 min at 30° C. Digestion was halted using 0.5M EDTA. Only proteins not bound to KP were digested. The protein mixture was dialyzed using dialysis cassettes (Thermo Fisher 66203, 2K MWCO) and analyzed by LC-MS/MS method to identify proteins that are bound to KP, the latter step carried out in the Duke Proteomics Core Laboratory.
A drug affinity responsive target stability (DARTS) assay (Lomenick, et al., 2009, Proc Natl Acad Sci USA 106:21984-21989) was used to study direct binding of KP to GSK3ß (FIG. 8A) in primary cortical neurons. The findings were consistent with previous reports in cell lines (Knockaert, et al., 2002, The Journal of biological chemistry 277:25493-25501) yet novel in primary neurons. […]

ß-cat = ß-cat nuclear translocation in primary neurons, immunolabeling; assay type: cell-based, rat; conditions: KP treatment
Experimental: Immunocytochemistry labeling of cultured neuronal cells was carried out as previously described (Liedtke et al., 2013, Small 9, 1066-1075; Yeo et al., 2009, J Neurosci 29:14652-14662; Yeo et al., 2013, Proc Natl Acad Sci USA 110:4315-4320). Primary antibodies are shown in the antibody table. Anti-KCC2 primary antibodies were validated with developing rat primary cortical neurons; we observed an increase in staining pattern that tightly matched increase of KCC2 mRNA expression (Liedtke et al., 2013, Small 9:1066-1075; Yeo et al., 2009, J Neurosci 29:14652-14662.; Yeo et al., 2013, Proc Natl Acad Sci USA 110:4315-4320). Secondary antibodies used were goat anti-mouse IgG Alexa Fluor 594 (Invitrogen A11032) and goat anti-rabbit IgG Alexa Fluor 594 (Invitrogen A11012). DAPI stain was obtained from Sigma Aldrich (D9542). Stained cells were observed using an inverted confocal microscope (Zeiss LSM780).
We obtained stacks of images recorded at 0.35 μm intervals through separate channels with a 63× oil-immersion lens (NA, 1.40, refraction index, 1.45). Zen software (Zeiss) was used to construct composite images from each optical series by combining the images recorded through the different channels, and the same software was used to obtain Z projection images (image resolution: 1024×1024 pixels; pixel size: 0.11 μm). ImageJ was used for morphometry. […]

δ-cat = assay: Nuclear transfer of transfected human δ-cat in N2a cells; assay type: cell-based, mouse
Text: Plasmid containing human δ-catenin (CTNND2, NM_001288717) open reading frame was obtained from GeneCopeia (EX-A4285-M02) and cloned into pCMV-ENTER vector (Origene PS100001). Site-directed mutagenesis using Phusion DNA Polymerase enzyme (Thermofisher F549L) in conjunction with complementary primers bearing the specific mutation were used to generate the S276A […] mutation S276A. PCR was followed by Dpn1 enzyme digestion to remove parental plasmid DNA. All constructs were verified by sequencing. pCS-CMV-tdTomato plasmid was obtained from Addgene (cat. #30530).
To investigate the relevance of δ-cat residue S276, N2a neural cells were studied because these cells transfect at higher efficiency than primary cortical neurons. In our cultures, N2a cells expressed neuronal ßIII-tubulin in elongated processes as determined by immune-labeling as an indicator of their neuronal differentiation. […] This increase in nuclear transfer was very similar to the trafficking we recorded in primary cortical neurons, thus validating the cell line. […] Of note, there was no increase of nuclear transfer of δ-cat(S276A) upon KP treatment (FIG. 8C and FIG. 8D).

N2a cultured cells = assay: Neuronalization of N2a cultured cells; assay type: cell-based, mouse; conditions: KP 0.2 μM for 3 days
GSK3ß = GSK3ß (Homo sapiens, UniProt P49841); conditions: literature; cited from earlier work
Sequence of GSK3ß (P49841 whole entry): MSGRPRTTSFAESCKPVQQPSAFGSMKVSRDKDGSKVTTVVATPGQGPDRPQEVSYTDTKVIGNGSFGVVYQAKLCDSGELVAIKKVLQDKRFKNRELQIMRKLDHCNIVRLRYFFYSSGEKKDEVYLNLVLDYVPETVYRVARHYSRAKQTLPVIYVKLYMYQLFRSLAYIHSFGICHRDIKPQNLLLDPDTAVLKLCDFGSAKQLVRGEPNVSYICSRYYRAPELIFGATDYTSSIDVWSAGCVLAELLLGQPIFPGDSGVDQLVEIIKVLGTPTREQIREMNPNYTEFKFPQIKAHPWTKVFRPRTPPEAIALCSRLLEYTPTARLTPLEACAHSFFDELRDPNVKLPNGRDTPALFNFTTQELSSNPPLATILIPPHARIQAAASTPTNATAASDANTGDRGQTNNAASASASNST

T1 sequence (P18266 whole entry): as the sequence (P49841 whole entry) above, with V240M, T390P, T392A, A400T, T402A counted along it

SMILES: O=C1Cc2c([nH]c3ccc(Br)cc23)-c2ccccc2N1 [kenpaullone, 9-bromo-7,12-dihydro-indolo [3,2-d] [1]benzazepin-6(5H)-one]
- binding of KP to GSK3ß (GSK3β): documented
- catenin translocation into the nucleus (FIG. 9) (ß-cat): significantly increases
- nuclear transfer of δ-cat (δ-cat; cells transfected with δ-cat(S276A), KP treatment): had no effect
- nuclear transfer of δ-cat (δ-cat; cells transfected with δ-cat(WT), KP vs vehicle): significantly enhances
- neuronal differentiation (N2a cultured cells): increased process formation
- potency of GSK3ß inhibition among known targets (GSK3ß): highest potency
